{"source": "patent EP1695704A1", "about": "“Derivatives of aryl (or heteroaryl) azolylcarbinols for the treatment of fibromyalgia” (LABORATORIOS DEL DR. ESTEVE, S.A., priority 2005, dated 2006)", "assay_type_in_all_cases": "in vivo", "key": {"[1]": {"test_system": "Unilateral ligature of the sciatic nerve", "test": "Neuropathic pain, Bennet model, mechanical response thresholds", "conditions": "rats with sciatic nerve ligature; dose-effect study; Figure 1", "description": "Neuropathic Pain - Dose-effect study of Example 1 Phase I (Bennet model): Unilateral ligature of the sciatic nerve (mechanical response thresholds)\nAccording to the Model described by Bennet (Bennet and Xie, Pain 1988, 33, 87-107) a well established model for neuropathic pain, rats were operated with the following surgical procedure,\n(§1) Rats were anaesthesized using Pentobarbital. Then the skin was incised. Following that a sciatic nerve ligature was placed and the incision was closed with silk thread.\n(§2) In Sham-operated control animals the identical surgical procedures were followed, but the nerve was not ligatured."}, "Mice": {"test_system": "Mice", "test": "Depression, Mice tail Suspension", "conditions": "Mus musculus, po", "procedure": "Depression, Mice tail Suspension\nMice were prepared according to the Model described by\nThe inhibition shown by the compound according to example 1 was: […]"}, "[2]": {"test_system": "Unilateral ligature of the sciatic nerve", "test": "Neuropathic pain, Bennet model, thermal response thresholds", "conditions": "rats with sciatic nerve ligature; dose-effect study; Figure 2", "description": "Neuropathic Pain - Dose-effect study of Example 1 Phase I (Bennet model): Unilateral ligature of the sciatic nerve (thermal response thresholds)\nAccording to the Model described by Bennet (Bennet and Xie, Pain 1988, 33, 87-107) a well established model for neuropathic pain, rats were operated with the following surgical procedure:\nas §1, §2"}, "[3]": {"test_system": "ptosis by reserpine in mice", "test": "Depression, Reserpine test", "conditions": "Mus musculus, po", "procedure": "Depression, Reserpine test\nMice were prepared according to the Model described by C.J.E. Niemegeers \"Antagonism of Reserpine-like activity\" in \"Antidepressants\", Ed. by S. Fielding, Futura Publishing Co., New York 1975. Pags 73-98 and Garattini S. et al. \"Antagonists of Reserpine-induced eyelid ptosis\" Med.Exp. 3 : 315-320 (1960):\nThe inhibition shown by the compound according to example 1 in ptosis by reserpine in mice was: […]"}}}
{"smiles": "CN(C)CCOC(c1ccccc1)c1ccnn1C", "note": "(racemic) [Example 1, (±)-5-{α-[2-(dimethylamino)ethoxy]benzyl}-1-methyl-1H-pirazole]", "values": [{"measurement": "effect on vocalization threshold using a mechanical stimulus", "setting": "[1]", "result": "clear dose-dependent effect"}, {"measurement": "ED50", "setting": "Mice", "result": 17, "unit": "mg/kg"}, {"measurement": "inhibition at 10 mg/kg", "setting": "Mice; dose 10 mg/kg p.o.", "result": 38, "unit": "%"}, {"measurement": "inhibition at 20 mg/kg", "setting": "Mice; dose 20 mg/kg p.o.", "result": 54, "unit": "%"}, {"measurement": "inhibition at 40 mg/kg", "setting": "Mice; dose 40 mg/kg p.o.", "result": 71, "unit": "%"}, {"measurement": "inhibition at 80 mg/kg", "setting": "Mice; dose 80 mg/kg p.o.", "result": 70, "unit": "%"}, {"measurement": "effect on struggle latency in a low temperature thermal response threshold", "setting": "[2]", "result": "clear dose-dependent effect"}, {"measurement": "ED50", "setting": "[3]", "result": 26.2, "unit": "mg/kg"}, {"measurement": "inhibition at 10 mg/kg", "setting": "[3]; dose 10 mg/kg p.o.", "result": 21, "unit": "%"}, {"measurement": "inhibition at 20 mg/kg", "setting": "[3]; dose 20 mg/kg p.o.", "result": 47, "unit": "%"}, {"measurement": "inhibition at 40 mg/kg", "setting": "[3]; dose 40 mg/kg p.o.", "result": 75, "unit": "%"}, {"measurement": "inhibition at 80 mg/kg", "setting": "[3]; dose 80 mg/kg p.o.", "result": 75, "unit": "%"}, {"measurement": "inhibition at 160 mg/kg", "setting": "[3]; dose 160 mg/kg p.o.", "result": 71, "unit": "%"}]}
